According to ChEMBL document CHEMBL5058564, “EUbOPEN Chemogenomics Library 2 (Incucyte)” (2022):

Tests used:
Assay type in all cases: toxicity, cell-based
[1] = system: Fibroblast; assay: Incucyte cell viability with human fibroblast; conditions: 10 µM, compound concentration 10 uM
[2] = system: HEK-293T; assay: Incucyte cell viability with HEK293T; conditions: human, 10 µM, compound concentration 10 uM
[3] = system: U2OS; assay: Incucyte cell viability with U2OS; conditions: human, 10 µM, compound concentration 10 uM
[4] = 0 h, replicate number 1, timepoint 0 hours
[5] = 6 h, replicate number 1, timepoint 6 hours
[6] = 12 h, replicate number 1, timepoint 12 hours
[7] = 12 h, replicate number 2, timepoint 12 hours
[8] = 18 h, replicate number 1, timepoint 18 hours
[9] = 18 h, replicate number 2, timepoint 18 hours
[10] = 24 h, replicate number 1, timepoint 24 hours
[11] = 24 h, replicate number 2, timepoint 24 hours
[12] = 0 h, replicate number 2, timepoint 0 hours
[13] = 6 h, replicate number 2, timepoint 6 hours
Further: unitless GR value; below 1 slowed growth and below 0 cell loss.

Row | SMILES | Growth Rate [1, 4] | Growth Rate [1, 5] | Growth Rate [1, 6] | Growth Rate [1, 7] | Growth Rate [1, 8] | Growth Rate [1, 9] | Growth Rate [1, 10] | Growth Rate [1, 11] | Growth Rate [2, 5] | Growth Rate [2, 6] | Growth Rate [2, 7] | Growth Rate [2, 8] | Growth Rate [2, 9] | Growth Rate [2, 10] | Growth Rate [2, 11] | Growth Rate [3, 5] | Growth Rate [3, 13] | Growth Rate [3, 6] | Growth Rate [3, 11] | Growth Rate [3, 7] | also measured
1 | O=C(c1cc(C2CC2)on1)N(C1CCCCC1)C1CCCCC1 | 0.81 | -0.36 | 0.15 | 0.97 | 0.82 | 0.86 | 0.78 | 0.8 | 0.27 | 0.55 | 0.56 | 0.64 | 0.68 | 0.74 | 0.67 | 0.89 | 0.71 | 0.7 | 1 | – | Growth Rate [2, 12]: 0.08; Growth Rate [3, 4]: 0.64
2 | CN(C)CCN(Cc1ccc(-c2ccc(CNCCc3ccccc3)cc2)cc1)C(=O)CCC1CCCC1.Cl.Cl | – | -1 | -0.99 | – | -0.96 | -0.99 | -0.93 | -0.98 | -0.93 | -0.74 | -0.78 | -0.55 | -0.67 | -0.46 | -0.59 | -1 | -0.96 | -0.99 | -0.58 | -0.81 | Growth Rate [2, 13]: -0.92; Growth Rate [3, 8]: -0.92; Growth Rate [3, 9]: -0.64; Growth Rate [3, 10]: -0.86
3 | N#Cc1c(Oc2cccc(OS(=O)(=O)CCCC(F)(F)F)c2)cccc1C(F)(F)F | 0.09 | -0.53 | -0.11 | -0.08 | -0.21 | 0.02 | -0.18 | 0 | -0.16 | 0 | 0.28 | -0.01 | 0.31 | 0.06 | 0.55 | – | – | 0.86 | 0.96 | 0.82 | Growth Rate [1, 13]: -0.47; Growth Rate [2, 13]: 0.24; Growth Rate [3, 12]: 0.57; Growth Rate [3, 9]: 0.81
4 | Nc1nc(CC(=O)Nc2ccc(CCNC[C@H](O)c3ccccc3)cc2)cs1 [MIRABEGRON] | 0.35 | 0.68 | 0.9 | – | – | – | – | – | – | – | – | – | – | – | – | – | – | 0.95 | – | – | Growth Rate [1, 12]: 0.45; Growth Rate [1, 13]: 0.56; Growth Rate [2, 4]: 0.8; Growth Rate [2, 12]: 0.62; Growth Rate [3, 4]: 0.18; Growth Rate [3, 8]: 0.54
5 | O=C1NC(=Nc2c(Cl)cccc2Cl)S/C1=C\c1ccc2nccnc2c1 | 0.9 | 0.24 | 0.09 | 0.32 | 0.4 | 0.61 | 0.39 | 0.48 | 0.34 | 0.15 | -0.06 | 0.07 | 0.05 | 0.26 | 0.15 | 0 | 0.81 | 0.33 | 0.59 | 0.54 | Growth Rate [1, 12]: 0.72; Growth Rate [1, 13]: 0.79; Growth Rate [2, 4]: 0.36; Growth Rate [2, 12]: 0.37; Growth Rate [2, 13]: 0.18; Growth Rate [3, 12]: -0.91; Growth Rate [3, 8]: 0.55; Growth Rate [3, 9]: 0.57; Growth Rate [3, 10]: 0.63
6 | COc1cc(OC2CCN(C(C)=O)CC2)ccc1C(=O)N1CCC(N2C(=O)OCc3ccccc32)CC1 | – | -0.07 | 0.28 | 0.65 | 0.37 | – | 0.24 | – | – | – | – | – | – | – | – | 0.85 | 0.79 | – | 0.88 | 0.77 | Growth Rate [1, 13]: -0.41; Growth Rate [2, 4]: 0.92; Growth Rate [3, 4]: 0.75; Growth Rate [3, 8]: 0.91; Growth Rate [3, 9]: 0.78; Growth Rate [3, 10]: 0.91
